# Test results: patent publication US9790211B2, “5-amino-quinoline-8-carboxamide derivatives as 5-HT4 receptor agonists” (SUVEN LIFE SCIENCES LIMITED, priority 2013, dated 2017)
# Where two headings read alike, the source gives them in different places.
# Legend:
# [1] = molecular target: T1, recombinant human 5-HT4 receptor (Homo sapiens, UniProt Q13639); assay: Determination of EC50 values for 5-HT4 receptor (CHO cells, pCRE-Luc reporter); format: cell-based; conditions: for Emax: CHO; for EC50: 4 hours incubation
# T1 construct: expressed in transfected cells
# Experimental: Determination of EC50 Values for 5-HT4 Receptor
# A stable CHO cell line expressing recombinant human 5-HT4 receptor and pCRE-Luc reporter system was used for cell-based assay. The assay offers a non-radioactive based approach to determine binding of a compound to GPCRs. In this specific assay, the level of intracellular cyclic AMP, which is modulated by activation, or inhibition of the receptor is measured. The recombinant cells harbor luciferase reporter gene under the control of cAMP response element.
# The above cells were grown in 96 well clear bottom white plates in Hams F12 medium containing 10% fetal bovine serum (FBS). Prior to the addition of compounds or standard agonist, cells were serum starved overnight. Increasing concentrations of test compounds were added in OptiMEM medium to the cells. The incubation was continued at 37° C. in CO2 incubator for 4 hours. Medium was removed and cells were washed with phosphate buffered saline. The cells were lysed and luciferase activity was measured in a Luminometer. Luminescence units were plotted against the compound concentrations using Graphpad software.
# Male Wistar rats = assay: Object recognition task model; format: in vivo; conditions: dose mg/kg: Ex 1 0.1, Ex 2 0.03, Ex 4 0.03, Ex 13 1, Ex 23 0.01, Ex 37 10, Ex 43 0.3
# Experimental: The cognition enhancing properties of compounds of this invention were estimated by using this model.
# Male Wistar rats (230-280 grams) were used as experimental animals. Four animals were housed in each cage. Animals were kept on 20% food deprivation before one day and given water ad libitum throughout the experiment and maintained on a 12 hours light/dark cycle. Also the rats were habituated to individual arenas for 1 hour in the absence of any objects.
# One group of 12 rats received vehicle (1 mL/Kg) orally and another set of animals received compound of the formula (I) either orally or i.p., before one hour of the familiar (T1) and choice trial (T2).
# The experiment was carried out in a 50×50×50 cm open field made up of acrylic. In the familiarization phase, (T1), the rats were placed individually in the open field for 3 minutes, in which two identical objects (plastic bottles, 12.5 cm height×5.5 cm diameter) covered in yellow masking tape alone (a1 and a2) were positioned in two adjacent corners, 10 cms from the walls. After 24 hours of the (T1) trial for long-term memory test, the same rats were placed in the same arena as they were placed in T1 trial. Choice phase (T2) rats were allowed to explore the open field for 3 minutes in presence of one familiar object (a3) and one novel object (b) (Amber color glass bottle, 12 cm high and 5 cm in diameter). Familiar objects presented similar textures, colors and sizes. During the T1 and T2 trial, explorations of each object (defined as sniffing, licking, chewing or having moving vibrissae whilst directing the nose towards the object at a distance of less than 1 cm) were recorded separately by stopwatch. Sitting on an object was not regarded as exploratory activity, however, it was rarely observed.
# T1 is the total time spent exploring the familiar objects (a1+a2).
# T2 is the total time spent exploring the familiar object and novel object (a3+b).
# The object recognition test was performed as described by Behaviour Brain Research, (1988), 31, 47-59.
# Aβ1-42 = assay: Effect on CSF Aβ1-42 level (ELISA); format: in vivo, Male Sprague Dawley Rat; conditions: 50.0 mg/kg p.o., positive control
# Experimental: (§1) The control group of male rats received a vehicle (reagent grade water) per orally by gavage at a dose volume of 10 mL/kg. The treated groups (6 rat per group) received a single dose of test compound (different doses) or DAPT (50.0 mg/kg). Two hour post dose of vehicle or test compounds, rats were anesthetized with isoflurane and CSF was collected by puncturing Cisterna magna using 0.5 mL syringes by utilizing stereotaxic frame. CSF samples were frozen in liquid nitrogen and stored at −80° C. until ELISA was performed.
# (§2) • 1. CSF samples were thawed to RT and diluted with Tris Buffer Saline containing protease inhibitors at 1:10 ratio [15:150 μL (15 μL CSF+ 135 μL TBS], • 2. To this diluted CSF samples 0.15 mL of EIA buffer (1:1 ratio) was added. These diluted samples were subjected for Aβ1-42 level measurement by ELISA. Measurement of Aβ1-42 by ELISA Kit:
# (§3) To investigate the role of an acute treatment of test compound on Aβ1-42 levels, expression of this protein was measured in CSF of treated and untreated rat by ELISA assay. The entire procedure was followed as described in ELISA kit manual (Mouse/Rat Amyloid-β1-40 ELISA, Cat No: 27720, IBL International, Hamburg, Germany).
# (§4) Statistical analyses were performed using the Graph Pad Prism (Version 4). Data are Mean±SD of Aβ1-42 levels expressed as percentage of control values (rat which received regent grade water). Values were compared between the different groups by unpaired t test. The significance level was set at *p<0.05; **p<0.01; ***p<0.001.
# Aβ1-40 = assay: Effect on CSF Aβ1-40 level (ELISA); format: in vivo, Male Sprague Dawley Rat; conditions: 50.0 mg/kg p.o., positive control
# Experimental: as §1, with “from” for “by puncturing”, “frame. The” for “frame.”
# as §2, with “115:150” for “[15:150”, “CSI+135” for “CSF+ 135”, “TBS.” for “TBS],”, “Aβ1-40” for “Aβ1-42”
# as §3, with “Aβ1-40” for “Aβ1-42”, “protein in CSF” for “protein”, “in” for “in CSF of”, “per” for “described in”, “Amyloid-Aβ1-40” for “Amyloid-β1-40”, “27721,” for “27720,”
# as §4, with “analysis was” for “analyses were”, “Aβ1-40” for “Aβ1-42”, “by using” for “by”
# [2] = CHO cells, human 5-HT4 receptor, luciferase reporter
# [3] = CHO cells, human 5-HT4 receptor, luciferase reporter, read-out: Emax
# T1 sequence (Q13639 whole entry): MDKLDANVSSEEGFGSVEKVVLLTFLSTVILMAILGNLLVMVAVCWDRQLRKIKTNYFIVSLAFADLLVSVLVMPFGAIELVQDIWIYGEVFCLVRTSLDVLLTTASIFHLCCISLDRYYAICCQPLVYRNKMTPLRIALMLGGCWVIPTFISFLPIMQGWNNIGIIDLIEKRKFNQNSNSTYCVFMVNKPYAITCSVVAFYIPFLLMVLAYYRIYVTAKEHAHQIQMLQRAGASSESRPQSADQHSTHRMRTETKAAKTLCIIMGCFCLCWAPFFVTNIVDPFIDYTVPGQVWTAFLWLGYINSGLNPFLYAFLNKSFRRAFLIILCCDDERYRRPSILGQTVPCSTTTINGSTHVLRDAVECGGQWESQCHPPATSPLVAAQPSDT
smiles,measurement,setting,value
"CC(C)(O)CN1CCC(CNC(=O)c2cc(Br)c(N)c3cccnc23)CC1 [Example 44, 5-Amino-6-bromo-N-{[1-(2-hydroxy-2-methylpropyl)-4-piperidinyl]methyl} quinoline-8-carboxamide L(+)-tartarate]",Emax,[1],52%
same,EC50,[1]; [2],0.3 nM
"Nc1c(Cl)cc(C(=O)NCC2[C@H]3CN(CC4CCOCC4)C[C@@H]23)c2ncccc12 (mixture of isomers) [Example 15, 5-Amino-6-chloro-N-{[3-(tetrahydro-2H-pyran-4-ylmethyl)-3-azabicyclo[3.1.0]hex-6-yl]methyl}quinoline-8-carboxamide (exo/endo mixture)]",EC50,[1]; [2],0.5 nM
same,Emax,[1]; [3],54%
"Nc1c(Cl)cc(C(=O)NCC2C3CN(CC4(O)CCOCC4)CC23)c2ncccc12 (stereo not drawn) [Example 25, 5-Amino-6-chloro-N-{[3-(4-hydroxytetrahydro-2H-pyran-4-ylmethyl)-3-azabicyclo[3.1.0]hex-6-yl]methyl}quinoline-8-carboxamideL(+)-tartarate]",Emax,[1],93%
same,EC50,[1]; [2],0.6 nM
"Nc1c(Cl)cc(C(=O)NCC2CCN(CC3CCOC3)CC2)c2ncccc12.O=C(O)C(O)C(O)C(=O)O (racemic) [Example 4, (R,S) 5-Amino-6-chloro-N-{[1-(tetrahydro-3-furanylmethyl)-4-piperidinyl]methyl} quinoline-8-carboxamide L(+)-tartarate]","Exploration time mean ± S.E.M, Familiar object","Male Wistar rats; choice trial T2, p.o.",6.96 ± 1.02 s
same,"Exploration time mean ± S.E.M, Novel object","Male Wistar rats; choice trial T2, p.o.",12.37 ± 1.22 s
same,Inference,Male Wistar rats; p.o.,Active
same,Emax,[1],56%
same,EC50,[1]; [2],0.05 nM
"CC(C)(O)CN1CCC(F)(CNC(=O)c2cc(Cl)c(N)c3cccnc23)CC1 [Example 36, 5-Amino-6-chloro-N-{[4-fluoro-1-(2-hydroxy-2-methylpropyl)-4-piperidinyl]methyl} quinoline-8-carboxamide]",EC50,[1]; [2],2.3 nM
same,Emax,[1]; [3],74%
"C[C@H](NC(=O)Cc1cc(F)cc(F)c1)C(=O)N[C@H](C(=O)OC(C)(C)C)c1ccccc1 [DAPT, reference compound]",levels of Aβ1-42 in rat CSF (in words),Aβ1-42,significantly decreased
same,level of Aβ1-40 in rat CSF (in words),Aβ1-40,significantly decreased
"CC(C)(F)CN1CCC(F)(CNC(=O)c2cc(Cl)c(N)c3cccnc23)CC1 [Example 48, 5-Amino-6-chloro-N-{[4-fluoro-1-(2-fluoro-2-methylpropyl)-4-piperidinyl]methyl} quinoline-8-carboxamide]",EC50,[1]; [2],8.9 nM
same,Emax,[1]; [3],84%
"CC(C)N1CC2C(CNC(=O)c3cc(Cl)c(N)c4cccnc34)C2C1 (stereo not drawn) [Example 10, 5-Amino-6-chloro-N-{[3-isopropyl-3-azabicyclo[3.1.0]hex-6-yl]methyl}quinoline-8-carboxamide L(+)-tartarate]",Emax,[1],83%
same,EC50,[1]; [2],1.5 nM
"Nc1c(Cl)cc(C(=O)NCC2CCN(C3CCOCC3)CC2)c2ncccc12 [Example 6, 5-Amino-6-chloro-N-{[1-(tetrahydro-2H-pyran-4-yl)-4-piperidinyl]methyl}quinoline-8-carboxamide L(+)-tartarate]",Emax,[1],56%
same,EC50,[1]; [2],0.1 nM
